{"source": "patent US6416949B1", "about": "“Method of synthesizing diverse collections of oligomers” (Affymax, Inc., priority 1991, dated 2002)", "key": {"Monoclonal antibody 3E7 [1]": {"test_system": "Monoclonal antibody 3E7", "assay": "staining of peptide beads with fluorescently labeled antibody 3E7 and FACS sorting", "assay_type": "binding", "details": "peptide on oligonucleotide-tagged beads", "protocol": "The beads coupled with the 95 mer and YGGFL were mixed with the beads that were coupled to the 110 mer and F in the ratio of 1:20. Thus, 0.1 mg of 95 mer/YGGFL beads (2 million beads) were mixed with 2.0 mg of the 110 mer/Phe beads (40 million beads). The mixture was suspended in blocking buffer (PBS, 1% BSA, and 0.05% Tween-20) and incubated at room temperature for 1 hr. The beads were next pelleted by centrifugation and resuspended in a solution of an FITC-labeled monoclonal antibody 3E7 that binds the peptide YGGFL (1 μg/mL). The suspension was incubated 0.5 hr on ice and then centrifuged to isolate the bead pellet.\nThe beads were resuspended in PBS for delivery into the fluorescence activated cell sorting (FACS) instrument (Becton Dickinson FACSORT Plus). Beads that had bound to the fluorescently labeled antibody were identified by their acquired fluorescence, and fluorescent beads were isolated by sorting into PCR tubes. One, ten, or one hundred fluorescent beads were sorted into each PCR tube. […]\nThe beads were resuspended in PBS for delivery into the fluorescence activated cell sorting (FACS) instrument (Becton Dickinson FACSORT Plus). Beads that had bound to the fluorescently labeled antibody were identified by their acquired fluorescence (see FIG. 10), and homogeneous samples of either fluorescent or non-fluorescent beads were isolated by sorting into PCR tubes. […]"}, "Monoclonal antibody 3E7 [2]": {"target": "Monoclonal antibody 3E7", "details": "solution assay, MAb 3E7; read-out: equilibrium binding constant (Kd); cited from earlier work"}, "Monoclonal antibody 3E7 [3]": {"test_system": "Monoclonal antibody 3E7", "assay": "magnetic selection of peptide beads by microbead-conjugated 3E7, analysed by flow cytometry", "assay_type": "binding", "details": "16 hr incubation at 4 degrees C in PBS, high strength magnet", "protocol": "After a 16 hr incubation at 4 degrees C, beads which bind the 3E7 antibody are selected using a high strength magnet. The selected beads are then analyzed by flow cytometry."}}, "data": [{"substance": "pentapeptide L-Tyr-Gly-Gly-L-Phe-L-Leu, ligand of monoclonal antibody 3E7 [YGGFL]", "values": [{"measurement": "binding of the peptide by fluorescently labeled antibody 3E7", "setting": "Monoclonal antibody 3E7 [1]", "value": "high affinity"}, {"measurement": "Kd", "setting": "Monoclonal antibody 3E7 [2]", "value": 6.6, "unit": "nM"}, {"measurement": "selection of peptide-bearing beads by 3E7 antibody", "setting": "Monoclonal antibody 3E7 [3]", "value": "only beads displaying the peptide YGGFL are selected"}]}]}
